# Columns and labels:
# [1] = Study 20170543 (CodeBreaK 100): sotorasib monotherapy pharmacokinetics; settings: for AUC(0-t): AUC0-24h
# [2] = Study 20190135 Subprotocol H: sotorasib pharmacokinetics in combination with panitumumab
# [3] = Phase 1 study of sotorasib with famotidine or omeprazole under fed conditions; format: in vivo, human
# Protocol: Safety and tolerability monitoring was performed throughout the study.
# CRC = assay: Study 20170543 Phase 2 CRC cohort, sotorasib monotherapy; format: in vivo, human
# Excerpt: A data snapshot was taken on Jun. 9, 2022.
# [4] = Phase 1 study of sotorasib with rifampin; format: in vivo, human
# KRAS G12C mutated CRC = assay: Study 20190135 Subprotocol H, sotorasib + panitumumab: safety and tolerability (DLTs, TRAEs)
# Excerpt: Accordingly, the primary endpoint will include an assessment of dose limiting toxicities, treatment-emergent and treatment-related adverse events.
# The grading of AEs will be based on the guidelines provided in the CTCAE version 5.0. […] A Hy's Law case is defined as: AST or ALT values of ≥3×ULN AND with serum total bilirubin level (TBL) of >2×ULN without signs of cholestasis and with no other clear alternative reason to explain the observed liver related laboratory abnormalities.
# [5] = Phase 1 study of sotorasib with omeprazole under fasted conditions; format: in vivo, human
# [6] = system: extracellular signal-regulated kinase (ERK); settings: preclinical studies; cited from earlier work
# [7] = Phase 1 study of digoxin with sotorasib; format: in vivo, human
# Excerpt: PK parameters were estimated using non-compartmental methods. Safety and tolerability were monitored throughout the study.
# [8] = Phase 1 study of midazolam with sotorasib; settings: 2 mg midazolam with 960 mg sotorasib after 14 days of daily sotorasib vs midazolam alone; 5 subjects
# [9] = human, plasma, oral, day 1, monotherapy (CodeBreaK 100), comparison in Aug. 6, 2021 data cut
# [10] = Jun. 24, 2022 data cut-off, combination therapy with panitumumab (n=35)
# [11] = famotidine 10 hours prior to and 2 hours after a single dose of sotorasib
# [12] = repeat doses of omeprazole with a single dose of sotorasib
# [13] = 960 mg sotorasib with single dose of 600 mg rifampin
# [14] = Aug. 6, 2021 data cut, 31 patients on the combination
# [15] = Jun. 24, 2022 data cut-off, 40 patients on the combination
# [16] = with omeprazole vs sotorasib alone, fasted state
# [17] = 0.5 mg digoxin coadministered with 960 mg sotorasib
# [18] = with a single dose of sotorasib vs digoxin alone
compound,measurement,setting,value
"C=CC(=O)N1CCN(c2nc(=O)n(-c3c(C)ccnc3C(C)C)c3nc(-c4c(O)cccc4F)c(F)cc23)[C@@H](C)C1 (atropisomer, axis not shown; (M)) [sotorasib, 6-fluoro-7-(2-fluoro-6-hydroxyphenyl)-(1M)-1-[4-methyl-2-(propan-2-yl)pyridin-3-yl]-4-[(2S)-2-methyl-4-(prop-2-enoyl)piperazin-1-yl]pyrido[2,3-d]pyrimidin-2(1H)-one]","tmax, median (range)","[1]; 180 mg, Day 8",0.75 (0.50-1.0) hr
same,"tmax, median (range)","[1]; 960 mg, Day 1",2.0 (0.25-6.0) hr
same,dose proportionality of exposure,"[1]; 180 to 960 mg PO QD, day 1 and day 8",less than dose-proportional
same,Tmax,"[1]; after PO administration, 180 to 960 mg PO QD",1 to 2 h
same,Tmax,"[1]; human, plasma, oral",1.9 h
same,AUC(0-t),[1]; [9],103000 ng·h/mL
same,AUC(0-t),"[1]; human, plasma, oral, mean (CV %), monotherapy (n=32, CodeBreaK 100), comparison in Jun. 24, 2022 data cut-off",65300 ng·h/mL
same,Cmax,[1]; [9],9710 ng/mL
same,Cmax,"[1]; human, plasma, oral, day 8, monotherapy (CodeBreaK 100), comparison in Aug. 6, 2021 data cut",6500 ng/mL
same,Tmax,"[1]; human, plasma, oral, tmax, day 8, monotherapy (CodeBreaK 100), comparison in Aug. 6, 2021 data cut",2 h
same,Tmax,"[1]; human, plasma, oral, tmax, median (range), monotherapy (n=32, CodeBreaK 100), comparison in Jun. 24, 2022 data cut-off",2 h
same,accumulation with multiple dosing,[1]; multiple PO QD dosing for 8 days,no accumulation
same,AUC0-24h,"[2]; Aug. 6, 2021 data cut, day 1, combination therapy with panitumumab",77200 ng·h/mL
same,"AUC0-24h, mean (CV %)",[2]; [10],65.8 (56%) h*μg/mL
same,"Cmax, mean (CV %)",[2]; [10],9.64 (55%) μg/mL
same,safety and tolerability,"[3]; 960 mg sotorasib with 40 mg famotidine or multiple daily 40 mg omeprazole, healthy subjects",safe and well tolerated
same,decrease of sotorasib AUC,[3]; [11],38%
same,decrease of sotorasib Cmax,[3]; [11],35%
same,decrease of sotorasib AUC,[3]; [12],57%
same,decrease of sotorasib Cmax,[3]; [12],65%
same,response rate,CRC,10%
same,Geometric mean sotorasib AUCinf,[4]; 960 mg sotorasib alone,25600 ng·h/mL
same,Geometric mean sotorasib Cmax,[4]; 960 mg sotorasib alone,6350 ng/mL
same,Geometric mean sotorasib Cmax,[4]; 960 mg sotorasib with multiple doses of 600 mg rifampin,4110 ng/mL
same,Geometric mean sotorasib AUCinf,[4]; [13],19600 ng·h/mL
same,Geometric mean sotorasib Cmax,[4]; [13],5340 ng/mL
same,safety and tolerability,"[4]; coadministered with 600 mg rifampin or alone, healthy subjects",safe and well tolerated
same,CYP3A4 substrate status,[4]; inferred from multiple doses of rifampin,is a CYP3A4 substrate
same,OATP1B1 substrate status,[4]; inferred from single dose of rifampin,not a substrate of OATP1B1
same,decrease of sotorasib AUCinf,[4]; multiple doses of rifampin,51%
same,decrease of sotorasib Cmax,[4]; multiple doses of rifampin,35%
same,effect of single dose of rifampin on sotorasib PK,[4]; single dose of rifampin,did not have a clinically meaningful effect
same,TRAEs of any grade related to the named drug,"KRAS G12C mutated CRC; Apr. 23, 2021 data cut, 8 patients on sotorasib 960 mg QD + panitumumab 6 mg/kg IV Q2W",4 patients
same,TRAEs leading to dose modification of the named drug,"KRAS G12C mutated CRC; Apr. 23, 2021 data cut, 8 patients on the combination",1 patients
same,"TRAEs of any grade related to the named drug, % of patients",KRAS G12C mutated CRC; [14],45.2%
same,"TRAEs of any grade related to the named drug, number of patients",KRAS G12C mutated CRC; [14],14 patients
same,"TRAEs resulting in dose modification of the named drug, % of patients",KRAS G12C mutated CRC; [14],9.7%
same,"TRAEs resulting in dose modification of the named drug, number of patients",KRAS G12C mutated CRC; [14],3 patients
same,"TRAEs of any grade related to the named drug, % of patients",KRAS G12C mutated CRC; [15],65%
same,"TRAEs of any grade related to the named drug, number of patients",KRAS G12C mutated CRC; [15],26 patients
same,"TRAEs resulting in dose modification of the named drug, % of patients",KRAS G12C mutated CRC; [15],15%
same,"TRAEs resulting in dose modification of the named drug, number of patients",KRAS G12C mutated CRC; [15],6 patients
same,mean terminal half-life (t1/2) with omeprazole compared to sotorasib alone,"[5]; 960 mg sotorasib with 40 mg omeprazole vs alone, fasted",similar
same,safety and tolerability,"[5]; coadministered with 40 mg omeprazole or alone, healthy subjects",safe and well tolerated
same,decrease of sotorasib AUCinf,[5]; [16],42%
same,decrease of sotorasib Cmax,[5]; [16],57%
same,phosphorylation of extracellular signal-regulated kinase (ERK),[6],inhibited nearly all detectable phosphorylation
C[C@H]1O[C@@H](O[C@H]2[C@@H](O)C[C@H](O[C@H]3[C@@H](O)C[C@H](O[C@H]4CC[C@@]5(C)[C@H](CC[C@@H]6[C@@H]5C[C@@H](O)[C@]5(C)[C@@H](C7=CC(=O)OC7)CC[C@]65O)C4)O[C@@H]3C)O[C@@H]2C)C[C@H](O)[C@@H]1O [digoxin],Geometric mean digoxin AUCinf,[7]; 0.5 mg digoxin alone,33.2 ng·h/mL
same,Geometric mean digoxin Cmax,[7]; 0.5 mg digoxin alone,1.90 ng/mL
same,Geometric mean digoxin AUCinf,[7]; [17],40.3 ng·h/mL
same,Geometric mean digoxin Cmax,[7]; [17],3.64 ng/mL
same,Digoxin median tmax and mean terminal half-life (t1/2) with sotorasib compared to digoxin alone,[7]; 0.5 mg digoxin with 960 mg sotorasib vs alone,similar
same,safety and tolerability,[7]; single doses of 0.5 mg digoxin alone or with 960 mg sotorasib,safe and well tolerated
same,increase of digoxin AUCinf,[7]; [18],approximately 21%
same,increase of digoxin Cmax,[7]; [18],~91%
Cc1ncc2n1-c1ccc(Cl)cc1C(c1ccccc1F)=NC2 [midazolam],decrease of midazolam AUV,[8],53%
same,decrease of midazolam Cmax,[8],48%

# From US20250127782A1, “METHODS OF TREATING CANCER” (AMGEN INC., priority 2021, published 2025)
